In PubChem BioAssay AID248 (DTP/NCI, 2004):
Several values for one entry are separate records, joined by “and”; a condition that tells them apart may be missing. Identical values can stand only once. Inconclusive results and toxic doses are left out.

Test system: L1210 leukemia ip in BDF1 mice, survival T/C
Assay: NCI In Vivo Anticancer Drug Screen. Data for tumor model L1210 Leukemia (intraperitoneal) in B6D2F1 (BDF1) mice
Conditions: endpoint: mean survival time, higher = longer survival
How it was run: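 Transplanted-tumor mice were given test agent; controls received vehicle only. Survival readings from the two groups were divided (treated over control).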

[1] = dose: 100.0 mg/kg/injection, schedule: Q01DX001 (ip), vehicle: Klucel (hydroxypropylcellulose) (HPC)
[2] = dose: 200.0 mg/kg/injection, schedule: Q01DX001 (ip), vehicle: Klucel (hydroxypropylcellulose) (HPC)
[3] = dose: 400.0 mg/kg/injection, schedule: Q01DX001 (ip), vehicle: Klucel (hydroxypropylcellulose) (HPC)
[4] = dose: 50.0 mg/kg/injection, schedule: Q01DX001 (ip), vehicle: saline
[5] = dose: 100.0 mg/kg/injection, schedule: Q01DX001 (ip), vehicle: saline
[6] = dose: 200.0 mg/kg/injection, schedule: Q01DX001 (ip), vehicle: saline
[7] = dose: 400.0 mg/kg/injection, schedule: Q01DX001 (ip), vehicle: saline
[8] = dose: 100.0 mg/kg/injection, schedule: Q01DX009 (ip), vehicle: saline with Tween-80
[9] = dose: 200.0 mg/kg/injection, schedule: Q01DX009 (ip), vehicle: saline with Tween-80
[10] = dose: 50.0 mg/kg/injection, schedule: Q01DX009 (ip), vehicle: saline with Tween-80
[11] = dose: 100.0 mg/kg/injection, schedule: Q04DX003 (ip), vehicle: Klucel (hydroxypropylcellulose) (HPC)
[12] = dose: 200.0 mg/kg/injection, schedule: Q04DX003 (ip), vehicle: Klucel (hydroxypropylcellulose) (HPC)
[13] = dose: 400.0 mg/kg/injection, schedule: Q04DX003 (ip), vehicle: Klucel (hydroxypropylcellulose) (HPC)
[14] = dose: 100.0 mg/kg/injection, schedule: Q01DX001 (ip), vehicle: carboxymethylcellulose (CMC)
[15] = dose: 200.0 mg/kg/injection, schedule: Q01DX001 (ip), vehicle: carboxymethylcellulose (CMC)
[16] = dose: 400.0 mg/kg/injection, schedule: Q01DX001 (ip), vehicle: carboxymethylcellulose (CMC)
[17] = dose: 100.0 mg/kg/injection, schedule: Q01DX009 (ip), vehicle: Klucel (hydroxypropylcellulose) (HPC)
[18] = dose: 200.0 mg/kg/injection, schedule: Q01DX009 (ip), vehicle: Klucel (hydroxypropylcellulose) (HPC)
[19] = dose: 400.0 mg/kg/injection, schedule: Q01DX009 (ip), vehicle: Klucel (hydroxypropylcellulose) (HPC)

O=C1C(c2ccccc2)CN1CC1CCCCC1 (configuration not stated)
T/C [1]: 98 % of control | T/C [2]: 101 % of control | T/C [3]: 95 % of control

Cc1nc2ccc(Cl)cc2c(=O)[nH]1
T/C (dose: 100.0 mg/kg/injection, schedule: Q01DX001 (ip), vehicle: other): 102 % of control | T/C (dose: 100.0 mg/kg/injection, schedule: Q04DX003 (ip), vehicle: other): 96 % of control | T/C (dose: 200.0 mg/kg/injection, schedule: Q01DX001 (ip), vehicle: other): 96 % of control | T/C (dose: 200.0 mg/kg/injection, schedule: Q04DX003 (ip), vehicle: other): 96 % of control | T/C (dose: 400.0 mg/kg/injection, schedule: Q01DX001 (ip), vehicle: other): 104 % of control | T/C (dose: 400.0 mg/kg/injection, schedule: Q04DX003 (ip), vehicle: other): 96 % of control

O=C(O)CCc1c(O)cc(Br)c(O)c1Br
T/C [1]: 90 % of control | T/C [2]: 93 % of control | T/C [3]: 96 % of control

CC(=O)OCC(=O)[C@@]1(O)CC[C@H]2[C@@H]3CCC4=CC(=O)C=C[C@]4(C)[C@H]3C(=O)C[C@@]21C
T/C (dose: 12.5 mg/kg/injection, schedule: Q01DX009 (ip), vehicle: Klucel (hydroxypropylcellulose) (HPC)): 93 % of control | T/C (dose: 25.0 mg/kg/injection, schedule: Q01DX009 (ip), vehicle: Klucel (hydroxypropylcellulose) (HPC)): 98 % of control | T/C (dose: 50.0 mg/kg/injection, schedule: Q01DX009 (ip), vehicle: Klucel (hydroxypropylcellulose) (HPC)): 103 % of control | T/C (dose: 75.0 mg/kg/injection, schedule: Q01DX009 (ip), vehicle: Klucel (hydroxypropylcellulose) (HPC)): 100 % of control | T/C (dose: 115.0 mg/kg/injection, schedule: Q01DX009 (ip), vehicle: Klucel (hydroxypropylcellulose) (HPC)): 98 % of control | T/C (dose: 170.0 mg/kg/injection, schedule: Q01DX009 (ip), vehicle: Klucel (hydroxypropylcellulose) (HPC)): 103 % of control | T/C (dose: 255.0 mg/kg/injection, schedule: Q01DX009 (ip), vehicle: Klucel (hydroxypropylcellulose) (HPC)): 86 % of control

Cc1nc2nc(N)nc(N)c2nc1C
T/C (dose: 15.63 mg/kg/injection, schedule: Q01DX Z (ip), vehicle: carboxymethylcellulose (CMC)): 103 % of control | T/C (dose: 31.25 mg/kg/injection, schedule: Q01DX Z (ip), vehicle: carboxymethylcellulose (CMC)): 93 % of control | T/C [4]: 117 % of control | T/C (dose: 62.5 mg/kg/injection, schedule: Q01DX Z (ip), vehicle: carboxymethylcellulose (CMC)): 91 % of control | T/C [5]: 102 % of control | T/C (dose: 125.0 mg/kg/injection, schedule: Q01DX Z (ip), vehicle: carboxymethylcellulose (CMC)): 92 % of control | T/C [6]: 102 % of control | T/C [7]: 100 % of control

CCCCCCCC#N
T/C (dose: 100.0 mg/kg/injection, schedule: Q01DX001 (ip), vehicle: saline with Tween-80): 92 % of control | T/C (dose: 200.0 mg/kg/injection, schedule: Q01DX001 (ip), vehicle: saline with Tween-80): 97 % of control | T/C (dose: 400.0 mg/kg/injection, schedule: Q01DX001 (ip), vehicle: saline with Tween-80): 105 % of control

CCN(CC)C1=C(Cl)C(=O)c2ccccc2C1=O
T/C [8]: 93 % of control | T/C [9]: 93 % of control

COc1ccc(C)cc1NC(=O)OCCOc1ccc([N+](=O)[O-])cc1
T/C [10]: 93 % of control | T/C [8]: 97 % of control | T/C [9]: 93 % of control

C=CS(=O)(=O)CCCCCCCCCCCCCCCCCC
T/C [11]: 91 % of control | T/C [12]: 91 % of control | T/C [13]: 98 % of control

CC(C)CCC(C)c1ccncc1 (configuration not stated)
T/C [5]: 103 % of control | T/C [6]: 97 % of control | T/C [7]: 100 % of control

CC(=O)NC(C)C(C)(C)O (configuration not stated)
T/C (dose: 100.0 mg/kg/injection, schedule: Q01DX009 (ip), vehicle: saline): 101 % of control | T/C (dose: 200.0 mg/kg/injection, schedule: Q01DX009 (ip), vehicle: saline): 98 % of control | T/C (dose: 400.0 mg/kg/injection, schedule: Q01DX009 (ip), vehicle: saline): 103 % of control

CC1(C)CCC(C)(C)c2cc(Br)ccc21
T/C [14]: 103 % of control | T/C [15]: 95 % of control | T/C [16]: 95 % of control

C=CCc1ccc(OC(=O)Nc2ccc(C)cc2Cl)c(OC)c1
T/C (dose: 100.0 mg/kg/injection, schedule: Q04DX002 (ip), vehicle: carboxymethylcellulose (CMC)): 93 % of control and 101 % of control | T/C (dose: 200.0 mg/kg/injection, schedule: Q04DX002 (ip), vehicle: carboxymethylcellulose (CMC)): 96 % of control and 100 % of control | T/C (dose: 400.0 mg/kg/injection, schedule: Q04DX002 (ip), vehicle: carboxymethylcellulose (CMC)): 97 % of control and 107 % of control

c1ccc(CNCCOB(OCCNCc2ccccc2)OCCNCc2ccccc2)cc1
T/C [17]: 94 % of control | T/C [11]: 98 % of control | T/C [18]: 94 % of control | T/C [12]: 111 % of control | T/C [19]: 97 % of control | T/C [13]: 95 % of control

CC(=O)/C(N=Nc1ccccc1)=C(\C)O
T/C (dose: 50.0 mg/kg/injection, schedule: Q01DX001 (ip), vehicle: carboxymethylcellulose (CMC)): 90 % of control | T/C (dose: 50.0 mg/kg/injection, schedule: Q01DX009 (sc), vehicle: olive oil, sesame oil, peanut oil): 113 % of control | T/C [14]: 97 % of control | T/C (dose: 100.0 mg/kg/injection, schedule: Q01DX009 (sc), vehicle: olive oil, sesame oil, peanut oil): 113 % of control | T/C [15]: 87 % of control | T/C (dose: 200.0 mg/kg/injection, schedule: Q01DX009 (sc), vehicle: olive oil, sesame oil, peanut oil): 101 % of control | T/C [16]: 95 % of control

O=NN(CCCl)C(=O)Nc1ccc2[nH]c3ccccc3c2c1
T/C (dose: 90.0 mg/kg/injection, schedule: Q01DX009 (ip), vehicle: carboxymethylcellulose (CMC)): 120 % of control | T/C (dose: 260.0 mg/kg/injection, schedule: Q01DX009 (ip), vehicle: Klucel (hydroxypropylcellulose) (HPC)): 108 % of control | T/C (dose: 266.0 mg/kg/injection, schedule: Q01DX009 (ip), vehicle: carboxymethylcellulose (CMC)): 157 % of control | T/C (dose: 520.0 mg/kg/injection, schedule: Q01DX009 (ip), vehicle: Klucel (hydroxypropylcellulose) (HPC)): 88 % of control | T/C (dose: 600.0 mg/kg/injection, schedule: Q01DX009 (ip), vehicle: carboxymethylcellulose (CMC)): 108 % of control

C1C2C1C1C3C2C2C4C5CC5C5C2C1C1C5C4C31 (configuration not stated)
T/C [4]: 106 % of control | T/C [5]: 112 % of control | T/C [6]: 122 % of control | T/C [7]: 106 % of control

COc1cc(C=O)cc(I)c1O
T/C (dose: 12.5 mg/kg/injection, schedule: Q01DX009 (ip), vehicle: saline with Tween-80): 94 % of control | T/C (dose: 25.0 mg/kg/injection, schedule: Q01DX009 (ip), vehicle: saline with Tween-80): 94 % of control | T/C [10]: 91 % of control

CC(=O)Nc1ccc(NC(=O)NC(C)(C)C)cc1
T/C [17]: 97 % of control | T/C [18]: 96 % of control | T/C [19]: 96 % of control

CNc1nc(N)nc(Nc2ccc(I)cc2)c1N=O
T/C [14]: 105 % of control | T/C (dose: 100.0 mg/kg/injection, schedule: Q01DX009 (ip), vehicle: acetone): 107 % of control | T/C (dose: 100.0 mg/kg/injection, schedule: Q04DX003 (ip), vehicle: acetone): 115 % of control | T/C [15]: 110 % of control | T/C (dose: 200.0 mg/kg/injection, schedule: Q01DX009 (ip), vehicle: acetone): 107 % of control | T/C (dose: 200.0 mg/kg/injection, schedule: Q04DX003 (ip), vehicle: acetone): 105 % of control | T/C [16]: 100 % of control | T/C (dose: 400.0 mg/kg/injection, schedule: Q01DX009 (ip), vehicle: acetone): 98 % of control | T/C (dose: 400.0 mg/kg/injection, schedule: Q04DX003 (ip), vehicle: acetone): 98 % of control
